# Test results from US9669005B2, “Use of naringenin in preparing drugs for preventing and/or treatment abdominal aortic aneurysm” (priority 2013, dated 2017).
# What was measured:
# Format in all cases: in vivo
# IL-6 and MCP-1 = experiment: Immunohistochemical staining of IL-6 and MCP-1 on vascular walls, CaPO4 model; conditions: CaPO4 daubed mice; immunohistochemistry; FIG. 3B
# Description: IL-6 and MCP-1 are proinflammatory chemotactic factors and cytokines, and they are mainly from vascular walls. MCP-1 can release more matrix metalloproteinase to degrade matrix by recruiting leukocytes, which mediats vascular remodeling and expanding (MacTaggart J N et al. Deletion of ccr2 but not ccr5 or cxcr3 inhibits aortic aneurysm formation Surgery. 2007; 142:284-288; Ishibashi M et al. Bone marrow-derived monocyte chemoattractant protein-1 receptor ccr2 is critical in angiotensin ii-induced acceleration of atherosclerosis and aneurysm formation in hypercholesterolemic mice. Arterioscl throm vasc biol. 2004; 24: e174-178), while IL-6 can enlarge effect of MCP-1 to aggravate the onset of abdominal aortic aneurysms (Tieu B C et al. An adventitial il-6/mcpl amplification loop accelerates macrophage-mediated vascular inflammation leading to aortic dissection in mice. J Clin Invest. 2009; 119:3637-3651). We used histochemical staining to identify the expressions of IL-6 and MCP-1 on vascular walls. IL-6 and MCP-1 were immunohistochemical results of anti-IL-6 and anti-MCP-1 specific antibodies (purchased from Abcam, Cambridge Company, UK), respectively.
# matrix metalloproteinase = experiment: In situ zymography, CaPO4 model; conditions: CaPO4 daubed mice; FIG. 4A
# Description: After the aortas of mice were perfused with PBS, fresh tissue was directly embedded with OCT, put in liquid nitrogen for freezing, and then continuously sliced. Firstly, washing was performed with PBS for 3 min, thrice. A fluorescently labeled DQ-gelation-FITC substrate (Sigma-Aldrich, St. Louis, Mo.) was incubated 1 hour at 37° C. Under normal circumstances, fluorescent label for the substrate was packaged, so there is no fluorescence; after activated gelatinase degraded gelatin, green fluorescent label would be exposed. After the section was incubated, washing was performed with PBS for 3 min, thrice, and then the section was sealed. Immunofluorescence confocal microscopy was used to irradiate. The stronger fluorescence was, which means, the stronger activity of matrix metalloproteinase was.
# [1] = Biochemical indexes, body weight and blood pressure of angiotensin II induced ApoE-/- mice; conditions: naringenin 50 mg/kg gavage 28 days
# Description: Firstly, 16 weeks of male ApoE^−/− mice were randomly divided into two groups, control group (n=16) and naringenin group (n=15), respectively. And then they were anesthetized by 0.1% pentobarbital sodium, and mini pumps (model 2004, Alzet, Cupertino, Calif.) were subcutaneously submerged; angiotensin II (Sigma-Aldrich, St. Louis, Mo.) dissolved with normal saline was added to the pump, such that drugs can be continuously administrated for 4 weeks at a dosage of 1000 ng/kg/min. From the first day after surgery, gavage was daily performed to mice at constant time points, water gavage in control group, and naringenin gavage (50 mg/kg) in naringenin group. Materials were removed 28 days after gavage. Blood pressure of the mice was measured by tail cuff method with BP-89A sphygmomanometer (Beijing Softron Biotechnology Co., Ltd.), and the mice were weighted. Blood was drawn in inner canthus of the mice, and after centrifuged for 10 minutes at 6000 rotations, supernatant was removed and the blood fat levels of the mice were measured.
# NMP-9 and NMP-2 = experiment: Gelatin zymography, angiotensin II model; conditions: AngII ApoE-/- mice; naringenin gavage; FIG. 8B
# Description: After extravasated blood in fresh removed blood vessels of infrarenal site in abdominal aortas of mice were cleared, and fat and connective tissues were removed, and blood vessels were cut into 1 cm ring, and put into 24-well plate. Blood vessels were cultured for 24 hours using 0.5 ml serum-free medium with high glucose. After the cultured supernatant protein was quantified, mercaptoethanol-free protein sample loading buffer was added, cryopreserved at −80° C. Water was used to prepare gelatin (Sigma-Aldrich, St. Louis, Mo.) into a concentration of 10 mg/ml, which was added to separation gel of protein electrophoresis according to the proportion of 1:10, causing the final concentration of gelatin as 1 mg/ml. Electrophoresis was performed in a voltage of 80V at 4° C. The gel was put into 0.25% Trixon-100 solution, and washing was performed twice in 30 minutes. […] Incubated gel was put into Coomassie brilliant blue to stain for 1-2 hours at room temperature, washed for 30 minutes with a solution having 30% methanol and 10% glacial acetic acid, a solution having 20% methanol and 10% glacial acetic acid, and a solution having 10% methanol and 5% glacial acetic acid, respectively, and then analyzed with Odyssey infrared fluorescence scanning system (LI-COR Biosciences, Lincoln, Nebr.). […]
# [2] = system: aortic aneurysms in angiotensin II induced ApoE knockout mice; experiment: Formed aortic aneurysms, ApoE knockout mice, second round of angiotensin II submerging pump with naringenin gavage
# Description: In addition, we used the method of angiotensin II subcutaneous submerging pump for 28 days (1,000 ng/kg/min), to induce abdominal aortic aneurysms on 20 weeks of male ApoE knockout mice (totally 40 mice) and used ultrasound to detect the diameters of the abdominal aortas. The diameter greater than 50% of diameter of adjacent blood vessel was used as a standard of the onset of an aortic aneurysm, and 28 mice suffered from aortic aneurysms 28 days later.
# Angiotensin II submerging pump was continuously given to all the mice for 28 days. […] In the mice which had suffered from aortic aneurysms previously, 4 mice in the 14 mice by water gavage died from fracture of aortic aneurysms, the other 10 survived mice all suffered from serious aortic aneurysms (the average diameter reaches 3.00±0.58 mm).
# [3] = AngII 1000 ng/kg/min ApoE-/- mice
structure (smiles),measurement,setting,value
O=C1C[C@@H](c2ccc(O)cc2)Oc2cc(O)cc(O)c21 [naringenin],expression of IL-6 and MCP-1 in adventitia in vascular walls,IL-6 and MCP-1,reduce their expressions
same,activity of matrix metalloproteinase (in situ zymography),matrix metalloproteinase,reduce the activity of matrix metalloproteinase induced by CaPO4 daubing
same,Body weight,[1]; [3],28.9 ± 2.03 g
same,Cholesterol,[1]; [3],8.46 ± 2.45 mmol
same,High density lipoprotein,[1]; [3],56.5 ± 5.97 mg/deciliter
same,Low density lipoprotein,[1]; [3],44.1 ± 15.9 mg/deciliter
same,Triglyceride,[1]; [3],0.69 ± 0.35 mmol
same,Blood pressure,"[1]; AngII 1000 ng/kg/min ApoE-/- mice, tail cuff method",136.6 ± 14.27 mmHg
same,blood pressure and body weight,[1]; AngII ApoE-/- mice,does not have an effect
same,"levels of cholesterol, triglyceride, and low density lipoprotein",[1]; AngII ApoE-/- mice,reduces
same,active form of NMP-9 and NMP-2 (gelatin zymography),NMP-9 and NMP-2,do not change significantly
same,zymogen form of MMP-9 (gelatin zymography),NMP-9 and NMP-2,significantly decreases
same,survival after the second round of angiotensin II,"[2]; ApoE knockout mice with previously formed aneurysms, 14 mice, naringenin gavage, 4 of 14 died in water group",all normally survived
same,"maximum diameter of the blood vessels (abdominal aorta, ultrasound)","[2]; ApoE knockout mice with previously formed aneurysms, naringenin gavage, second AngII round, water group 3.00±0.58",1.62±0.45 mm
same,number of mice in which aortic aneurysms were observed,"[2]; ApoE knockout mice with previously formed aneurysms, of 14 mice, naringenin gavage, second AngII round 28 days",5
same,incidence rate of aortic aneurysms,"[2]; ApoE knockout mice without aneurysm after first AngII round, 6 mice, second AngII round 28 days with naringenin gavage, control 50%",16%
